Results from patent US20050155093A1, “Rabbit nuclear cloning method and uses thereof” (Institute National de Ia Recherche Agronomique, priority 2002, published 2005).
Where “and” joins values, the source holds several entries; their conditions need not be identical. Equal entries are not always repeated.

System: rabbit MII oocytes
Assay: In vitro development after parthenogenic activation of rabbit oocytes (electrical activation, then incubation in M199 with drug)
Type: cell-based
Procedure: Metaphase II (MII) oocytes are collected from superovulated “New Zealand” rabbits by injections of FSH hormones followed by an injection of HCG hormone, mated with a vasectomized male 16 hours after injection of human choriogonadotrophin (hCG). The oocytes are then incubated in 0.5% hyaluronidase for 15 min (Sigma) in order to remove the cumulus cells by gentle pipeting. For the nuclear transfer, the oocytes are enucleated as previously described (Adenot et al., 1997). Simultaneously, cumulus cells are collected either from rabbits of “New Zealand” breed or from F1 rabbits obtained by a cross between rabbits of “New Zealand” breed crossed with rabbits of “Fauves de Bourgogne” breed or “New Zealand” transgenic F1 female rabbits containing a DNA construct with a sequence encoding the enhanced green fluorescence protein (eGFP) placed under the control of an EF1 (“elongation factor 1”) promoter or of an HMG promoter. The eGFP fluorescence and the PCR amplification reactions are used as markers for the cumulus donor cells. The cumulus cells are then stored at 38° C. in PBS without calcium or magnesium supplemented with 1% PVP 40 000 (polyvinylpyrrolidone (PVP)) which are then used as nucleus donor cells.
To reconstruct the embryos by nuclear transfer (NT), individual cumulus cells are inserted by micromanipulation into the zona pellucida of the enucleated oocytes. The embryos obtained by nuclear transfer (NT embryos) and the MII oocytes are activated in the following manner: 2 phases of electrical stimulations are applied 1 hour apart with a Grass stimulator (3 pulses of continuous current of 3.2 kV×cm^−1 for 20 μs each in 0.3 M mannitol containing 0.1 mM of Ca^2+ and of Mg^2+), the first phase inducing the fusion of the oocyte and of the cumulus cell. The reconstituted embryos are maintained for one hour in a culture medium at 38° C. […] After extensive washing to remove the drugs, the cells are again placed in culture in a microdrop of 50 μl of B2 medium supplemented with 2.5% fetal calf serum (FCS) in mineral oil (Sigma M8410) at 38° C. under an atmosphere saturated with 5% CO2. This activation protocol is applied to the NT embryos about 18 to 20 hours after mating of the donors.
The microtubular organization and the chromatin in the NT embryos at the 1 cell stage are observed as previously described (Adenot et al., 1997), except that the fixing state lasts for 20 min at 37° C. and that the mounting medium is Vectashield (Vector Laboratories). The rates of cleavage of the NT embryos and of the parthenotes are evaluated from 21 hours to 23 hours after electrostimulation. The rates of development up to the blastocyst stage are estimated after an in vitro culture of 3 to 4 days. For the evaluation of the number of cells, the embryos are fixed as previously described, and then stained with Hoechst […] at 1 μg/ml and then mounted on slides with wells in Vectashield and analyzed by epifluorescence. The controls are blastocysts which either developed in vitro from a 1 cell embryo collected from a superovulated rabbit or which developed in vivo from nonsuperovulated females crossed with a male and then sacrificed 3 or 4 days later.

[1] = 30 min incubation in M199 + drug after electrical activation
[2] = 1 h incubation in M199 + drug after electrical activation
[3] = 1 h incubation in M199 + drug after electrical activation, cleavage at 2 cell stage
[4] = 4 h incubation in M199 + drug after electrical activation

| SMILES | Number of blastocysts [1] | Number of cleaved oocytes [1] | blastocysts (%) [1] [%] | cleaved oocytes (%) [1] [%] | Number of blastocysts [2] | Number of cleaved oocytes [2] | blastocysts (%) [2] [%] | cleaved oocytes (%) [3] | Number of blastocysts [4] | Number of cleaved oocytes [4] | blastocysts (%) [4] [%] | cleaved oocytes (%) [4] [%] |
| --- | --- | --- | --- | --- | --- | --- | --- | --- | --- | --- | --- | --- |
| CN(C)c1ncnc2nc[nH]c12 [6-DMAP, 6-dimethylaminopurine] | 32 | 43 | 66.7 | 89.6 | 38 and 35 | 46 and 47 | 72.9 | 96% and 95.8% and 97.9% |  |  |  |  |
| C[C@@H]1C[C@@H]([C@H](O)CC2CC(=O)NC(=O)C2)C(=O)[C@@H](C)C1 [CHX, cycloheximide] | 19 | 41 | 39.6 | 85.4 | 24 | 45 | 50 | 94% and 93.7% | 25 | 47 | 52.1 | 97.9 |
